The numbers were not newly measured in article PMC4001449, “Thienoquinolines as Novel Disruptors of the PKCε/RACK2 Protein–Protein Interaction” (Journal of Medicinal Chemistry, 2014), which cites them from elsewhere.

A word on the pIC50: it is −log10 of the IC50, conventionally taken in molar units.

Conditions in all cases: cited from earlier work
One data set has as its target PKCη (Homo sapiens, UniProt P24723). Also on record: method as in PMID 21186251.
Another data set concerns the target T1, PKCε (Homo sapiens, UniProt Q02156).
T1 sequence (Q02156 1-737): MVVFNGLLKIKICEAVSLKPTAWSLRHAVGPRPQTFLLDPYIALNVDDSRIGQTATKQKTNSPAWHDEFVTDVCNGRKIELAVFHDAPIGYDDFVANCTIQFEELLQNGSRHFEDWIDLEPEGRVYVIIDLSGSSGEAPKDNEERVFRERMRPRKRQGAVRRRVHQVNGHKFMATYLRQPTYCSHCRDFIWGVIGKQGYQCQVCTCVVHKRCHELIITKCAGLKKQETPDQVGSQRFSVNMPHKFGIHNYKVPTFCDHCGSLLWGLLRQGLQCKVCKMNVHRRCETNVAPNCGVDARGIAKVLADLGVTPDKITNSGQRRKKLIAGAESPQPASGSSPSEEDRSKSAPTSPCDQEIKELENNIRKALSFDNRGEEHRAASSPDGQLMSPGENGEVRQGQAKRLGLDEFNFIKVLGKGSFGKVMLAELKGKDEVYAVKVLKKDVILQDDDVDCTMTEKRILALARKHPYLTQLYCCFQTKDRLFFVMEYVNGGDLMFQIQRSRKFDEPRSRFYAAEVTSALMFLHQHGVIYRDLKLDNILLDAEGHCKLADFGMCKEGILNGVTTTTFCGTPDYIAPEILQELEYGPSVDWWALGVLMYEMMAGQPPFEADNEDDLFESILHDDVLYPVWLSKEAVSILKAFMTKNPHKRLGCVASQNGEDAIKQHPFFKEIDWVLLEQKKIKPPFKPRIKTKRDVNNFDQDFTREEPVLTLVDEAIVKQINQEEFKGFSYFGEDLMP
Also on record: method as in PMID 21186251.

Data set [1] has as its system interaction of PKCι and its adaptor protein Par6. Also on record: method as in PMID 16861740.
The target of another data set is ribonucleotide reductase. Also on record: method as in PMID 11668483.

pIC50: −log10 of the molar value.

PKCη, sequence (P24723 whole entry): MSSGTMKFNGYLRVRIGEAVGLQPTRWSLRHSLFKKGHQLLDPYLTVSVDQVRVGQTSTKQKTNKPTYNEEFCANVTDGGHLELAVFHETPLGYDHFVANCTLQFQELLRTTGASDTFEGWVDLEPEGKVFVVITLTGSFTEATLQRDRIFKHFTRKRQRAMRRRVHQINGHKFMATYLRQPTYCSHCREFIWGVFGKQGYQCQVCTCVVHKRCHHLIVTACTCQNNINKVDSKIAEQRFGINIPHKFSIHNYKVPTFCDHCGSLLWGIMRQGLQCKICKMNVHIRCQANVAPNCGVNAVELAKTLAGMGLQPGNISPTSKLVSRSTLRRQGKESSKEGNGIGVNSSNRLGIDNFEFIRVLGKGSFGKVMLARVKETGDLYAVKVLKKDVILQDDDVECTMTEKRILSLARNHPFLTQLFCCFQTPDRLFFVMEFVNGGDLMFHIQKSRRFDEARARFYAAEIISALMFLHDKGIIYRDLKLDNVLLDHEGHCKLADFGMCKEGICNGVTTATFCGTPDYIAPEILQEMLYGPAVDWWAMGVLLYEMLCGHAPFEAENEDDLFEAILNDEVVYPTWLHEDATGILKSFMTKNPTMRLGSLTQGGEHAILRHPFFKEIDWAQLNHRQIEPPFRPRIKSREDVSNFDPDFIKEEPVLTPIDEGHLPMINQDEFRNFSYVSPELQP

Turning to `O=C1NC(=O)N(Cc2ccccc2)C(=O)/C1=C\c1ccc2c(c1)OCO2` [BAS 02104951], on PKCη, the “Direct inhibition of PKCη” value was “inhibited”. On PKCε, the “Direct inhibition of PKCε” value is reported as “inhibited”.
Take `O=C(O)CC([S-])C(=O)O.[Au+]` (stereo not shown) [aurothiomalate]: the “Active concentration range, prevention of PKCι/Par6 interaction” value in data set [1] is about 10 µM.
hydroxyurea: the pIC50 on ribonucleotide reductase was 4.43.
